These are literature values, as cited in publication PMC6848746 (Psychopharmacology, 2019).

SMILES strings stand for the structures. Read-outs that look alike come from different tables or passages of the source.

Data set [1] relates to rats. The settings on record: MMAI discrimination; ref Marona-Lewicka and Nichols 1994, 1998; cited from earlier work.
The target of data set [2] is hDAT. The settings on record: read-out: [125I]RTI-55 binding to hDAT Ki; ref Eshleman et al. 2017; cited from earlier work.
The test system of data set [3] is hDAT. The settings on record: cited from earlier work.
In another data set the target is 5-HT2B receptor. The settings on record: read-out: 5-HT2B receptor Ki, vs. [3H]LSD, cited from earlier work.
The test system of data set [4] is rats. The settings on record: ref Bilsky et al. 1990, Marona-Lewicka et al. 1996; cited from earlier work.

`COC(=O)[C@H]1[C@@H](OC(=O)c2ccccc2)C[C@@H]2CC[C@H]1N2C` [cocaine, reference compound]: the “substitution for MMAI” value in the data set on rats [1] is recorded as “did not substitute”. Regarding `CC[C@@H](Cc1ccc2c(c1)OCO2)NC` [S-(+)-MBDB, S-(+)-N-methyl-1-(1,3-benzodioxol-5-yl)-2-butanamine, reference compound], the “substitution for MMAI” value in the data set on rats [1] is reported as “fully substituted”. One may read the Ki as the dissociation constant of the complex between target and ligand, obtained from inhibition or displacement. What is called IC50 is the midpoint of a concentration-inhibition curve. Turning to `CN[C@@H](C)Cc1ccccc1` [methamphetamine], the Ki on hDAT [2] was 4580 nM. For the same compound, the IC50 in the data set with hDAT [3] (read-out: [3H]DA uptake inhibition IC50, ref Eshleman et al. 2017) is 66.7 nM. Moreover, the “fold higher potency for [3H]DA uptake inhibition than [125I]RTI-55 displacement” value in the data set on hDAT [3] (ref Eshleman et al. 2017) is given as “about 70 fold”. In the case of `CCN[C@@H](C)Cc1cccc(C(F)(F)F)c1` [(+)-fenfluramine, reference compound], in the data set with rats [1], the “substitution for MMAI” value was “fully substituted”. In the case of `C[C@H](N)Cc1ccccc1` [(+)-amphetamine, reference compound], in the data set on rats [1], the “substitution for MMAI” value is recorded as “did not substitute”. For the compound `NC1Cc2ccc(I)cc2C1` (stereo not drawn) [5-IAI, 5-iodo-2-aminoindan], the Ki at 5-HT2B receptor (ref Iversen et al. (2013)) was 70 nM. In the case of `CC(N)Cc1ccc2c(c1)OCO2` (stereo not drawn) [MDA], the Ki on 5-HT2B receptor (ref Setola et al. 2003) is 100 nM.

For `CNC(C)Cc1ccc2c(c1)OCO2` (stereo not drawn) [MDMA, 3,4-methylenedioxymethamphetamine, reference compound], the place conditioning effect entry in the data set with rats [4] is on record as “conditioned place preference”. Further, on 5-HT2B receptor (ref Setola et al. 2003), the Ki was 500 nM. Moreover, the “substitution for MMAI” value with rats [1] is given as “fully substituted”.
